For data set [1], the system named is human neutrophils. Description: IL-8 calcium flux assay. In kind it is cell-based. As to conditions: @ 11 μM; human neutrophils stimulated with human IL-8. Here is the method:
Compounds of Formula I and II were evaluated for their effect on calcium flux using methodology known in the art, e.g., Neote K., DiGregorio D., Mak J. Y., Horuk R., and Schall T. J., “Molecular cloning, functional expression, and signaling characteristics of a C—C chemokine receptor,” Cell, 1993;72:415.
Briefly, human neutrophils were incubated with the fluorescence dye FLUO-3 for 1 hour. The cells were washed after this loading period, resuspended in HANKs buffer, and loaded into a 96-well plate. Compound was added to each well. After a 2-minute incubation period, the cells were stimulated with human IL-8 and the calcium flux response recorded and quantified.

For data set [2], the system named is human neutrophils. Put plainly: IL-8 chemotaxis assay. In kind it is cell-based. The note with it: freshly isolated human neutrophils, rhIL-8 as chemoattractant, 30 minutes at 37° C. Here is the method: Compounds of Formula I and II were evaluated for their effect on chemotaxis using methodology known in the art, e.g., Carr M. W., Roth S. J., Luther E., Rose S. S., and Springer T. A., “Monocyte chemoattractant protein 1 acts as a T-lymphocyte chemoattractant.” Proc. Natl. Acad Sci. USA, 1994;91:3652; Qin S., Larosa G., Campbell J. J. et al., “Expression of MCP-1 and IL-8 receptors on subset on T-cells, and correlation with transendothelial chemotactic potential,” Eur. J. Immu., 1996;26:640.
Briefly, freshly isolated human neutrophils were resuspended in chemotaxis buffer, which is made of one part of RPMI 1640 medium, one part of Medium 199, and 0.5% BSA. The cells were incubated with or without compounds for 5 minutes. Similarly, rhIL-8 was incubated in a separate plate, then transferred into lower chambers of chemotaxis plate. Neutrophils were added onto the top chamber. The plates were incubated at 37° C. for 30 minutes. The top chamber was then removed and the plate frozen at −80° C. for 30 minutes. After thawing, migrated cells were stained with Cytoquant Cell Proliferation Assay Kit (Molecular Probes No. C-7026) and quantitated by reading the plate on a fluorescent plate reader.

By melting point is commonly meant the temperature of the solid-liquid transition. The molecule `CN(C)C1CCC(Nc2nc3cc(Cl)c(Cl)cc3nc2-c2ccccn2)CC1.Cl` (stereo not drawn) returned a melting point of 180 to 182 °C.
On the same count and under the same terms, to `Cl.N[C@H]1CC[C@H](Nc2nc3cc(Cl)c(Cl)cc3nc2-c2ccccn2)CC1` belongs 280 to 282 °C (dec.); to `Cl.Clc1cc2nc(-c3ccccn3)c(N3CCC(N4CCCCC4)CC3)nc2cc1Cl`, 275 to 277 °C (dec.).
Molecule `c1ccc(-c2nc3ccccc3nc2NC2CN3CCC2CC3)nc1` (stereo not drawn) showed a melting point of 63 to 65 °C.
Molecule `CCN(CC)CCCCNc1nc2cc(Cl)c(Cl)cc2nc1-c1cc2ccccc2[nH]1.Cl` gave a melting point of 145 to 147 °C.
The same measure, in the same setting: to `CCN(CC)CCCCNc1nc2cc(Cl)c(Cl)cc2nc1-c1ccc(Cl)s1.Cl` belongs 98 to 100 °C; to `CCCc1ccc(-c2nc3cc(Cl)c(Cl)cc3nc2NCCCCN(CC)CC)s1.Cl`, 165 to 167 °C; to `CCN(CC)CCCCNc1nc2cc(Cl)c(Cl)cc2nc1-c1cc2ccccc2o1.Cl`, 220 °C.
On the same count and under the same terms, to `CCN(CC)CCCCNc1nc2cc(Cl)c(Cl)cc2nc1-c1cccc2c1sc1ccccc12.Cl` belongs 134 to 136 °C.
One may read the IC50 as the concentration that inhibits the measured activity by half. Low values mean greater potency in that assay, high ones weaker potency in that assay. For “6-Chloro-N-[4-(dimethylamino)cyclohexyl]-3-(2-pyridinyl)-2-quinoxalinamine and 7-Chloro-N-[4-(dimethylamino)cyclohexyl]-3-(2-pyridinyl)-2-quinoxalinamine, Dihydrochloride, Hydrate [Example 1]”, in the data set with human neutrophils [1], the “IL-8 Ca+2 Flux % Inhibition (μM)” value was 34% @ 11. The same molecule had an IC50 with human neutrophils [2] of 0.89 µM.
In turn, `c1ccc(-c2nc3ccccc3nc2NCCCn2ccnc2)nc1` [Example 3, N-[3-(1H-Imidazol-1-yl)propyl]-3-(2-pyridinyl)-2-quinoxalinamine] registered a melting point of 85 to 86 °C.
In turn, `CN1CCCC1CCNc1nc2ccccc2nc1-c1ccccn1` (stereo not drawn) [Example 4, N-[2-(1-Methyl-2-pyrrolidinyl)ethyl]-3-(2-pyridinyl)-2-quinoxalinamine] displayed a melting point of 186 to 188 °C.
For the molecule `c1ccc(-c2nc3ccccc3nc2Nc2ccc(N3CCOCC3)cc2)nc1` [Example 6, N-[4-(4-Morpholinyl)phenyl]-3-(2-pyridinyl)-2-quinoxalinamine], the melting point was in the range of 205 to 206 °C.
`c1ccc(-c2nc3ccccc3nc2NCc2ccncc2)nc1` [Example 7, N-(4-Pyridinylmethyl)-3-(2-pyridinyl)-2-quinoxalinamine] gave a melting point of 142 to 144 °C.
Consider `CN(C)c1ccc(Nc2nc3ccccc3nc2-c2ccccn2)cc1` [Example 8, N-[4-(Dimethylamino)phenyl]-3-(2-pyridinyl)-2-quinoxalinamine], for which the melting point is 169 to 170 °C.
Same read-out and setting: for `CC(=O)N(C)c1ccc(Nc2nc3ccccc3nc2-c2ccccn2)cc1` [Example 9, N-Methyl-N-[4-[[3-(2-pyridinyl)-2-quinoxalinyl]amino]phenyl]-acetamide] the value was 165 to 166 °C; for `CCN(CC)Cc1ccc(Nc2nc3cc(Cl)c(Cl)cc3nc2-c2ccccn2)cc1` [Example 13, (6,7-Dichloro-3-pyridin-2-yl-quinoxalin-2-yl)-(4-diethylaminomethyl-phenyl)-amine], 250 to 252 °C (dec.).
`CN(C)CCCNc1nc2cc(Cl)c(Cl)cc2nc1-c1ccco1` [Example 14, N′-(6,7-Dichloro-3-furan-2-yl-quinoxalin-2-yl)-N,N-dimethyl-propane-1,3-diamine] had an IC50 in the data set on human neutrophils [2] (Neutrophil, 0.5 h) of 1.8 µM.
As for `CN(C)CCCNc1nc2cc(Cl)c(Cl)cc2nc1-c1cccs1` [Example 15, N′-(6,7-Dichloro-3-thiophen-2-yl-quinoxalin-2-yl)-N,N-dimethyl-propane-1,3-diamine], it took 0.32 µM to reach half-maximal inhibition in the data set on human neutrophils [2] (Neutrophil, 0.5 h) (IC50).
The molecule `CN(C)CCCCNc1nc2cc(F)c(F)cc2nc1-c1cccs1` [Example 17, N′-(6,7-Difluoro-3-thiophen-2-yl-quinoxalin-2-yl)-N,N-dimethyl-butane-1,4-diamine] showed a melting point of 175 to 177 °C.
With `CCN(CC)CCCCNc1nc2cc(Cl)c(Cl)cc2nc1-c1cc2ccccc2s1` [Example 25, N′(3-Benzo[b]thiophen-2-yl-6,7-dichloro-quinoxalin-2-yl)-N,N-4-diethyl-butane-1,4-diamine], the IC50 in the data set on human neutrophils [2] (Neutrophil, 0.5 h) worked out at 0.31 µM. This lies in the sub-micromolar range.
`CCN(CC)CCCCNc1nc2cc(Cl)c(Cl)cc2nc1-c1ccc(C)s1` [Example 28, N′-[6,7-Dichloro-3-(5-methyl-thiophen-2-yl)quinoxalin-2-yl]-N,N-diethyl-butane-1,4-diamine] had an IC50 in the data set on human neutrophils [2] (Neutrophil, 0.5 h) of 0.4 µM.
Still for that read-out and setting: for `CCN(CC)CCCCNc1nc2cc(Cl)c(Cl)cc2nc1-c1ccc(-c2cccs2)s1` [Example 34, N′-(3-[2,2′]Bithiophenyl-5-yl-6,7-dichloro-quinoxalin-2-yl)-N,N-diethyl-butane-1,4-diamine] the value was 0.08 µM.

The values above are taken from patent publication US6548499B1, “Substituted quinoxaline derivatives as interleukin-8 receptor antagonists” (Millennium Pharmaceuticals, Inc., priority 1998, dated 2003).
